Test results from patent publication US8762074B2, “Optimizing culture medium for CD34<+> hematopoietic cell expansion” (Sino-Cell Technologies, priority 2004, dated 2014).

B1: IL-6 sR: IL-6 sR (soluble receptor), purchased from R&D systems (protein, UniProt P08887 20-365, looked up)
extracellular domain: LAPRRCPAQEVARGVLTSLPGDSVTLTCPGVEPEDNATVHWVLRKPAAGSHPSRWAGMGRRLLLRSVQLHDSGNYSCYRAGRPAGTVHLLVDVPPEEPQLSCFRKSPLSNVVCEWGPRSTPSLTTKAVLLVRKFQNSPAEDFQEPCQYSQESQKFSCQLAVPEGDSSFYIVSMCVASSVGSKFSKTQTFQGCGILQPDPPANITVTAVARNPRWLSVTWQDPHSWNSSFYRLRFELRYRAERSKTFTTWMVKDLQHHCVIHDAWSGLRHVVQLRAQEEFGQGEWSEWSPEAMGTPWTESRSPPAENEVSTPMQALTTNKDDDNILFRDSANATSLPVQDSSSVPLP
modifications: extracellular domain
notes: IL-6 sR (soluble receptor), purchased from R&D systems
B2: Flt-3 ligand (protein, UniProt P49771 27-235, looked up)
Fms-related tyrosine kinase 3 …: TQDCSFQHSPISSDFAVKIRELSDYLLQDYPVTVASNLQDEELCGGLWRLVLAQRWMERLKTVAGSKMQGLLERVNTEIHFVTKCAFQPPPSCLRFVQTNISRLLQETSEQLVALKPWITRQNFSRCLELQCQPDSSTLPPPWSPRPLEATAPTAPQPPLLLLLLLPVGLLLLAAAWCLHWQRTRRRTPRPGEQVPPVPSPQDLLLVEH
notes: recombinant human growth factor
B3: granulocyte colonystimulating factor (protein, UniProt P09919 31-207, looked up)
Granulocyte …: TPLGPASSLPQSFLLKCLEQVRKIQGDGAALQEKLVSECATYKLCHPEELVLLGHSLGIPWAPLSSCPSQALQLAGCLSQLHSGLFLYQGLLQALEGISPELGPTLDTLQLDVADFATTIWQQMEELGMAPALQPTQGAMPAFASAFQRRAGGVLVASHLQSFLEVSYRVLRHLAQP
notes: as for B2

Legend:
[1] = system: WBC; test: Ex vivo expansion culture of UCB CD133+/CD34+ cells, WBC growth (cell density at day 7); format: cell-based, human; conditions: for regression coefficient of first-order model, Eq. (6): from Table 7, IMDM containing TISF; for regression coefficient of first-order model, Eq. (8): from Table 8, cytokine-containing medium; for effect on WBC growth: per Eq. (2), serum-containing IMDM; for regression coefficient of first-order model, Eq. (4): from Table 5, serum-containing medium, +1 = 10 ng/ml
Description: (§1) The UCB of full-termed healthy newborns, included uneventful vaginal births or cesarean sections, was harvested with a standard 250-ml blood bag containing citrate-phosphate-dextrose-adenine anticoagulant (Terumo, Shibuya-ku, Tokyo, Japan).
(§2) Buffy coat cells were obtained from UCB samples by centrifugation (700×g for 20 min), and were diluted with an equal volume of wash buffer (Dulbecco's phosphate buffered saline (D-PBS, Sigma, St. Louis, Mo.) contain 2 mM EDTA (Sigma)). Then the Buffy coat cells were layered onto Ficoll-Paque (ρ=1.077 g/ml, Amersham Biosciences, Uppsala, Sweden) density gradients to deplete red blood cells (RBC) (700×g for 40 min). The mononuclear cell (MNC) interface was collected, diluted into four volumes of wash buffer, and centrifuged to pellet the cells (700×g for 10 min). The MNC pellet was washed twice and resuspended in MACS buffer (D-PBS contained 0.5% bovine serum albumin (BSA, Sigma) and 2 mM EDTA) for CD133<+> cell purification. CD133<+> cord blood cells were isolated using the Miltenyi VarioMACS device (Miltenyi Biotec, Bergisch Gladbach, Germany), according to the manufacturer's instruction. Briefly, UCB MNC were incubated for 30 min at 4° C. with human IgG to block the Fc receptors and mouse monoclonal antibody to human CD133 microbead (Miltenyi Biotec). Labeled cells were applied to magnetic column (LS column, Miltenyi Biotec). Then, unbound cells were washed out, and CD133<+> cells were eluted from the column with MACS buffer. To improve the purity of the CD133+ (or CD34<+>) cells, a secondary purification cycle was performed with the same way. Then the cells were sampled for CD34<+> analysis to determine yield, purity and viability and assayed for colony-forming cells (CFC) as day 0 for control. To expand cells, CD133<+> cells were seeded at a concentration of 5×10^4 cells/ml in 24-well plate (1 ml per well, Falcon, N.J.) with variable serum substitutes, cytokines and medium according to experiment design. After 7 days, the cells were analyzed to compare with the day 0 control (all experiments were repeated at least four times).
(§3) Two-level factorial design followed the method of steepest ascent was carried out to find the optimal concentration of serum substitutes and cytokines for CD34<+> cells expansion. Fractional and full factorial design data were regressed by SPSS software (SPSS Inc. In: SPSS for Windows, base system user's guide. Release 6.0. Chicago, Ill.: SPSS Inc.; 1993. p. 235-47) to obtain the first order polynomial. Its statistical significance was determined by an F-test and the significance of the regression coefficients was analyzed by a t-test. The polynomial takes the form of White blood cell or CD34<+> cell (cells/ml)=β0+βiXi (1) where β's are the regression constants and X's are coded variables for the tested additives.

[2] = system: CD34<+> hematopoietic cells; test: Ex vivo expansion culture of UCB CD133+/CD34+ cells, CD34+ cell growth by flow cytometry (cell density at day 7); format: cell-based, human; conditions: for regression coefficient of first-order model, Eq. (7): from Table 7, IMDM containing TISF; for regression coefficient of first-order model, Eq. (9): from Table 8, cytokine-containing medium; for effect on CD34<+> cell growth/expansion: per Eq. (3), serum-containing IMDM; for regression coefficient of first-order model, Eq. (5): from Table 5, +1 = 10 ng/ml
Description: as §1, §2
Cells before and after expanding culture were analyzed by two-color flow cytometry on a FACSCaliber analyzer (Becton-Dickinson, NJ, USA). About 1×10^6 cells were stained with FITC-conjugated anti-human CD45 and Peconjugated anti-human CD34, and gated for CD45<+>CD34<+> cells with low side scatter, according to the CD34 enumeration protocols developed by the International Society of Hematotherapy and Graft Engineering (ISHAGE) (Sutherland Dr, et al, J Hematother 1996; 5:231-8). A replicate sample was stained with FITC-antiCD45 and PE-mouse IgG1 as an isotype control to ensure specificity.
as §3

[3] = per Eqs. (6) and (7), serum substitutes in IMDM containing TISF
[4] = per Eqs. (8) and (9), serum substitutes in serum-free medium
[5] = 2^9−5 fractional factorial design in IMDM containing BIT2 (data not shown)
[6] = per Eqs. (10) and (11), serum-free IMDM + BIT2
[7] = per Eqs. (4) and (5), serum-containing medium

| Molecule | regression coefficient of first-order model, Eq. (6) [1] | regression coefficient of first-order model, Eq. (8) [1] | regression coefficient of first-order model, Eq. (7) [2] | regression coefficient of first-order model, Eq. (9) [2] | effect on WBC and CD34<+> cell growth [2, 3] | effect on WBC and CD34<+> cell growth [2, 4] | effect on WBC and CD34<+> cell growth [2, 5] | effect on CD34<+> cell growth/expansion [2] | effect on WBC and CD34<+> cell growth [2, 6] | effect on WBC growth [1] | regression coefficient of first-order model, Eq. (4) [1] | regression coefficient of first-order model, Eq. (5) ([2]; serum-containing medium) | effect on WBC and CD34<+> cell growth [2, 7] |
| --- | --- | --- | --- | --- | --- | --- | --- | --- | --- | --- | --- | --- | --- |
| C[C@]12CCC(=O)C=C1CC[C@@H]1[C@@H]2[C@@H](O)C[C@@]2(C)[C@H]1CC[C@]2(O)C(=O)CO [HC, hydrocortisone, reference compound] | 0.5 10^5 WBC cells/ml | – | – | – | – | – | – | – | – | – | – | – | – |
| OCCS [Trial 2-ME, 2-mercaptoethanol] | 0.875 10^5 WBC cells/ml | 0.069 10^6 WBC cells/ml | 0.311 10^5 CD34<+> cells/ml | 0.025 10^6 CD34<+> cells/ml | can stimulate both WBC and CD34<+> cell growth | could promote WBC and CD34<+> cell growth instead of serum | – | – | – | – | – | – | – |
| IL-6: recombinant human interleukin-6, purchased from R&D systems | – | – | – | – | – | – | could facilitate WBC and CD34<+> cell growth | less positive effects than TPO, IL-3, SCF and FL | positively affected WBC and CD34<+> cell growth | – | – | – | – |
| Transferrin [TF] | – | 0.7 10^6 WBC cells/ml | 0.120 10^5 CD34<+> cells/ml | 0.303 10^6 CD34<+> cells/ml | can stimulate both WBC and CD34<+> cell growth | could promote WBC and CD34<+> cell growth instead of serum | – | – | – | – | – | – | – |
| bovine serum albumin [BSA] | 2.625 10^5 WBC cells/ml | 0.362 10^6 WBC cells/ml | 0.945 10^5 CD34<+> cells/ml | 0.302 10^6 CD34<+> cells/ml | can stimulate both WBC and CD34<+> cell growth | could promote WBC and CD34<+> cell growth instead of serum | – | – | – | – | – | – | – |
| granulocyte-macrophage colony-stimulating factor [GM-CSF] | – | – | – | – | – | – | could facilitate WBC and CD34<+> cell growth | negative | positively affected WBC and CD34<+> cell growth | positive | – | – | – |
| insulin | 1.250 10^5 WBC cells/ml | 0.131 10^6 WBC cells/ml | 0.231 10^5 CD34<+> cells/ml | 0.053 10^6 CD34<+> cells/ml | can stimulate both WBC and CD34<+> cell growth | could promote WBC and CD34<+> cell growth instead of serum | – | – | – | – | – | – | – |
| stem cell factor [SCF] | – | – | – | – | – | – | could facilitate WBC and CD34<+> cell growth | can stimulate CD34<+> cell expansion | positively affected WBC and CD34<+> cell growth | stronger effects than the other cytokines | 0.387 10^6 WBC cells/ml | 0.162 10^6 CD34<+> cells/ml | facilitated WBC and CD34<+> cell growth |
| thrombopoietin [TPO] | – | – | – | – | – | – | could facilitate WBC and CD34<+> cell growth | can stimulate CD34<+> cell expansion | positively affected WBC and CD34<+> cell growth | stronger effects than the other cytokines | 0.413 10^6 WBC cells/ml | 0.172 10^6 CD34<+> cells/ml | facilitated WBC and CD34<+> cell growth |
| B1 | – | – | – | – | – | – | – | – | – | inhibited WBC growth | – | – | – |
| B2 | – | – | – | – | – | – | could facilitate WBC and CD34<+> cell growth | can stimulate CD34<+> cell expansion | positively affected WBC and CD34<+> cell growth | stronger effects than the other cytokines | 0.237 10^6 WBC cells/ml | 0.110 10^6 CD34<+> cells/ml | facilitated WBC and CD34<+> cell growth |
| B3 | – | – | – | – | – | – | could facilitate WBC and CD34<+> cell growth | less positive effects than TPO, IL-3, SCF and FL | positively affected WBC and CD34<+> cell growth | – | – | – | – |
